Tested on: Aedes aegypti
Assay: Repellent screening assay (in vitro membrane feeding, Hemotek feeder, treated cloth)
Type: in vivo
Conditions: for RD90: concentration producing 90% reduction in feeding rate, 30 min exposure
From the text: FIG. 1 is a photograph of the equipment used for the repellent screening assay. The apparatus includes a temperature-controlled feeder unit which includes a collagen casing covered by conventional cheese cloth. The collagen mimics the surface of human and is in contact with a heating element (not seen in FIG. 1) whose temperature is controlled by the temperature controller. The collagen pad is saturated with a solution that mimics human blood. The compound whose repellency is to be tested is applied to the cheese cloth, which is then affixed to the collagen pad. In the main panel in FIG. 1, the feeder unit is shown in its operational position, on top of a container in which are mosquitos (or any other arthropod) that is to be repelled. […] In practice, a known amount of putative repellent is applied to the cheese cloth. Unfed mosquitos, for example, are within the mosquito container. The feeder unit is then placed on top of the mosquito container for a pre-determined amount of time. The mosquitos are then sacrificed and examined to determine how many mosquitos fed (i.e., were not repelled) and how many mosquitos were still unfed after the test (i.e., were repelled). In this fashion, very reliable data can be generated regarding the effectiveness of any putative repellent composition. See Katritzky, A. R., et al. (2008) Proc. Nat. Acad. Sci. (US), 105:7359-7364 and Katritzky, A. R., et al. (2010) Journal of Med. Entomol., 47:924-938.
Unfed mosquitos are then used as test subjects. After the time course of each experiment is completed, the mosquitos are sacrificed and examined to determine how many mosquitos have fed (and thus were not repelled) versus how many mosquitos remain unfed (and thus were repelled). Fed versus unfed mosquitos can be separated by simple visual examination. Fed mosquites have an engorged, distended appearance. Representative images depicting the appearance of fed vs unfed mosquitoes resulting from the repellent screening assays is shown in FIG. 7. Images clearly show engorged abdomens and food red dye when mosquitoes were exposed to water only as negative repellent controls (FIG. 7, panel A).
A colony of the Aedes aegypti Liverpool strain was maintained at the University of Wisconsin according to standard procedures reported previously (Paskewitz et al., 1999; Kajla et al., 2010, Christensen et al., 1984). Anopheles gambiae and Culex pipiens (Iowa strain) were reared according to established protocols (Aliota et al., 2016) in a 100 square feet walk-in environmental chamber maintained at 26.5±0.5° C. and 80±5% relative humidity. For egg production, adult female mosquitoes were offered defibrinated rabbit blood (HemoStat Laboratories, Dixon, Calif., USA) via a Hemotek-brand membrane feeding system (Discovery Workshops, Accrington, UK) once a week. Adult mosquitoes were maintained on a constant exposure to 10% sucrose on cotton balls and larvae were fed Tetramin®-brand fish food. For repellent assays, nulliparous, mated, twenty 7-10 days old adult female mosquitoes were separated in screened pint-size paper containers (Neptune Paper Products, Fort Lee, N.J., USA). Mosquitoes were starved for 12-16 hours before the repellent assay. Mosquitoes were exposed to repellent compounds for 30 min at room temperature (incandescent light, 25-26° C.) between 10:00 am and 4:00 pm (see below for repellent assay set-up).
A Hemotek-brand feeding system was used to keep the feeding solution at a constant temperature set at 37° C. […]

SMILES	RE90 (relative efficacy)	Feeding (engorgement / red dye in abdomen) (1%, positive control, FIG. 7 panel B)	RD90
CCN(CC)C(=O)c1cccc(C)c1 [DEET, N,N-diethyl-3-methylbenzamide]	1	no feeding occurred	0.188 Percent concentration (v/v)
CCC(C)OC(=O)N1CCCCC1CCO (centres unmarked) [Picaridin]	0.37		0.498 Percent concentration (v/v)
